This is an account of results in ChEMBL document CHEMBL1201862, “PubChem BioAssay data set” (2004).

The structures appear in SMILES notation.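 These data come from cells grown in 96-well plates and exposed to compound for 48 hours at five concentrations. GI50 marks 50% less growth.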 Calls of active or inactive are those of the source. Rule as the data show it: active = GI50 up to about 1.1 µM and inactive = higher. Where only a bound is given, the exact number is not on record here.

Test systems include A498; BT-549; EKVX; HCT-116; HOP-62; Hs-578T; MDA-MB-435; NCI-H226; PC-3; SF-268; SF-295; SN12C; SR; U-251; UACC-62; KM12; LOX IMVI; NCI-H460; SK-MEL-28; UO-31.
Experiment in all cases: NCI-60 cell line screen, 48 h

Consider `CC1(C)Oc2ccc3c(=O)cc(-c4ccccc4)oc3c2C1C(=O)O` (stereo not drawn), for which the GI50 with A498, in the assay on BT-549, with EKVX, in the assay with HCT-116, in the assay on HOP-62 and in the assay on Hs-578T was > 100 µM (inactive) each time. For the same compound, the GI50 with MDA-MB-435, with NCI-H226, with PC-3, in the assay with SF-268, with SF-295 and with SN12C was > 100 µM (inactive) in each case. Moreover, the GI50 in the assay with SR, with U-251 and with UACC-62 was > 100 µM (inactive) each time.
With `CCCCc1nc(C)oc1C(C)C`, the GI50 in the assay on A498, in the assay on BT-549, with EKVX, with HCT-116, in the assay with HOP-62 and with Hs-578T was > 100 µM (inactive) each time. Moreover, the GI50 in the assay with KM12 is > 100 µM (inactive); in the assay with LOX IMVI, > 100 µM (inactive); in the assay with MDA-MB-435, > 100 µM (inactive); with NCI-H226, 40.7 µM (inactive); with NCI-H460 it was > 100 µM (inactive); in the assay with PC-3, > 100 µM (inactive). Besides, the GI50 in the assay on SF-268, in the assay on SF-295, in the assay on SK-MEL-28, in the assay on SN12C, in the assay on U-251 and in the assay on UACC-62 was > 100 µM (inactive) throughout. Besides, the GI50 in the assay with UO-31 was > 100 µM (inactive).
Consider `Clc1nc(Cl)c(Cl)c(-c2ccccc2)n1`, for which the GI50 in the assay on BT-549 is 2.41 µM (inactive); with EKVX, 16.6 µM (inactive); in the assay on HOP-62 it was 4.03 µM (inactive); with Hs-578T it was 2.73 µM (inactive); in the assay on KM12, 5.02 µM (inactive); with LOX IMVI it was 1.86 µM (inactive). Also, the GI50 is 14.6 µM (inactive) with MDA-MB-435; 24.3 µM (inactive) in the assay with NCI-H226; 9.46 µM (inactive) in the assay with NCI-H460; 10.5 µM (inactive) in the assay on PC-3; 23.9 µM (inactive) in the assay with SF-268; 3.93 µM (inactive) in the assay on SF-295. Also, the GI50 is 16 µM (inactive) with SK-MEL-28; 20 µM (inactive) in the assay with SN12C; 0.322 µM (active) with SR; 15.1 µM (inactive) with U-251; 18.1 µM (inactive) in the assay with UO-31.
As for `CCOC(=O)/C(C(=O)Nc1cccc(C(F)(F)F)c1)=C(/N)N1CCCC1`, the GI50 in the assay with A498 is 41.6 µM (inactive); with BT-549, > 100 µM (inactive); in the assay with EKVX it was > 100 µM (inactive); with HCT-116, > 100 µM (inactive); in the assay on HOP-62 it was 44.6 µM (inactive); with Hs-578T it was 27.2 µM (inactive). The GI50 is > 100 µM (inactive) with KM12; > 100 µM (inactive) in the assay on LOX IMVI; > 100 µM (inactive) with MDA-MB-435; 29.2 µM (inactive) with NCI-H226; > 100 µM (inactive) with NCI-H460; > 100 µM (inactive) in the assay with PC-3. Also, the GI50 in the assay on SF-268 was 54.3 µM (inactive); in the assay on SF-295, 42.2 µM (inactive); in the assay with SK-MEL-28, > 100 µM (inactive); in the assay with SN12C, 41.9 µM (inactive); in the assay with U-251 it was 76.9 µM (inactive); in the assay with UACC-62, > 100 µM (inactive).
Consider `Cc1cc2ccccc2n2c1nc1ccc(O)cc12`, for which the GI50 in the assay on BT-549, in the assay on EKVX, in the assay with HCT-116, in the assay on HOP-62, in the assay with Hs-578T and in the assay with KM12 was > 10 µM (inactive) each time. Also, the GI50 is > 10 µM (inactive) with MDA-MB-435; 5.36 µM (inactive) in the assay with NCI-H460; > 10 µM (inactive) in the assay with PC-3; > 10 µM (inactive) in the assay with SF-268; > 10 µM (inactive) in the assay on SF-295; > 10 µM (inactive) in the assay on SK-MEL-28. The GI50 in the assay with SN12C is 9.35 µM (inactive); in the assay on SR, 9.73 µM (inactive); in the assay on U-251 it was 7.71 µM (inactive); in the assay on UACC-62 it was > 10 µM (inactive).
For the compound `O=C1C=CC(=NNc2ccccc2)C=CC1=O`, the GI50 in the assay with BT-549 is 19.4 µM (inactive); with EKVX, 25.9 µM (inactive); in the assay with HCT-116, 13.3 µM (inactive); with HOP-62, 10.8 µM (inactive); in the assay with Hs-578T, 11 µM (inactive); in the assay with KM12 it was 12.4 µM (inactive). Further, the GI50 with LOX IMVI was 5.09 µM (inactive); with MDA-MB-435 it was 12.9 µM (inactive); with NCI-H226, 11.7 µM (inactive); in the assay on NCI-H460, 11.3 µM (inactive); with PC-3, 8.67 µM (inactive); in the assay with SF-268, 16.3 µM (inactive). Moreover, the GI50 was 6.85 µM (inactive) in the assay on SF-295; 14.4 µM (inactive) with SK-MEL-28; 16.7 µM (inactive) in the assay on SN12C; 1.72 µM (inactive) with SR; 7.71 µM (inactive) in the assay on U-251; 12.8 µM (inactive) with UACC-62. The GI50 in the assay on UO-31 was 17.8 µM (inactive).
`O=C1N/C(=N/N=C/c2cccs2)N/C1=C\c1ccco1`: the GI50 is 17.1 µM (inactive) in the assay with A498; 70 µM (inactive) in the assay on BT-549; > 100 µM (inactive) with EKVX; 35.5 µM (inactive) with HCT-116; > 100 µM (inactive) with HOP-62; 29.3 µM (inactive) in the assay on Hs-578T. Further, the GI50 with KM12 is 34 µM (inactive); with LOX IMVI, 21.6 µM (inactive); in the assay on MDA-MB-435 it was 20.6 µM (inactive); in the assay on NCI-H226, 21.3 µM (inactive); in the assay with NCI-H460, 23.2 µM (inactive); in the assay on PC-3 it was 18.9 µM (inactive). The GI50 with SF-268 is 19.8 µM (inactive); in the assay on SF-295, 94.2 µM (inactive); with SK-MEL-28 it was 76.9 µM (inactive); with SN12C it was 43.8 µM (inactive); in the assay with U-251 it was 23.5 µM (inactive); with UACC-62, 60.7 µM (inactive). Also, the GI50 in the assay on UO-31 is > 100 µM (inactive).
Turning to `Cc1ccc2cccc3c2c1CC1(C3=O)S(=O)(=O)OCCOS1(=O)=O`, the GI50 with A498, in the assay on BT-549, in the assay on EKVX, in the assay with HCT-116, in the assay with HOP-62 and with Hs-578T was > 100 µM (inactive) in each case. In addition, the GI50 with KM12, in the assay on LOX IMVI, with MDA-MB-435, with NCI-H226, in the assay on NCI-H460 and in the assay with PC-3 was > 100 µM (inactive) each time. The GI50 in the assay on SF-268, in the assay on SF-295, in the assay on SK-MEL-28, in the assay with SN12C, with U-251 and with UACC-62 was > 100 µM (inactive) in each case. Also, the GI50 in the assay on UO-31 was > 100 µM (inactive).
As to `NC1CC(=O)c2csc(Cl)c21` (stereo not drawn), the GI50 in the assay on A498 was 17.1 µM (inactive); in the assay on BT-549, 17.7 µM (inactive); in the assay with EKVX it was 17.3 µM (inactive); in the assay on HCT-116, 3.86 µM (inactive); in the assay with HOP-62, 14.1 µM (inactive); with Hs-578T it was 35.5 µM (inactive). The GI50 in the assay on KM12 was 0.736 µM (active); with LOX IMVI it was 4 µM (inactive); in the assay with MDA-MB-435, 12.8 µM (inactive); in the assay with NCI-H226, 37 µM (inactive); with NCI-H460, 22.5 µM (inactive); in the assay on PC-3 it was 10.1 µM (inactive). Further, the GI50 in the assay on SF-268 was 10.1 µM (inactive); in the assay on SF-295 it was 17.1 µM (inactive); with SK-MEL-28, 17.1 µM (inactive); in the assay on SN12C it was 5.42 µM (inactive); in the assay with U-251, 8.51 µM (inactive); in the assay on UACC-62, 10 µM (inactive). The GI50 in the assay on UO-31 is 5.75 µM (inactive).
For `O=C1Nc2ccccc2/C1=C\c1c(-c2ccccc2)nc2n1CCS2`, the GI50 in the assay on A498 was 18.2 µM (inactive); in the assay with BT-549, 20 µM (inactive); in the assay on EKVX it was 17.7 µM (inactive); with HCT-116, 20.8 µM (inactive); in the assay on HOP-62, 29.2 µM (inactive); in the assay with Hs-578T, 23.4 µM (inactive). Moreover, the GI50 with KM12 is 16.8 µM (inactive); with LOX IMVI, 18.3 µM (inactive); in the assay on MDA-MB-435, 8.93 µM (inactive); with NCI-H460, 17.3 µM (inactive); in the assay on PC-3, 19.1 µM (inactive); in the assay with SF-268, 26.5 µM (inactive). The GI50 with SF-295 is 17.3 µM (inactive); in the assay on SK-MEL-28, 31.2 µM (inactive); with SN12C it was 22.1 µM (inactive); with U-251 it was 20.5 µM (inactive); with UACC-62 it was 13 µM (inactive); with UO-31, 5.68 µM (inactive).
As to `O=[N+]([O-])c1cc(-[n+]2cc([O-])on2)ccc1F`, the GI50 was 16.1 µM (inactive) with BT-549; 18 µM (inactive) in the assay on EKVX; 15.3 µM (inactive) in the assay with HCT-116; 15.8 µM (inactive) in the assay on HOP-62; 26.7 µM (inactive) in the assay on Hs-578T; 17.2 µM (inactive) in the assay with KM12. Further, the GI50 with LOX IMVI was 14.9 µM (inactive); in the assay on MDA-MB-435 it was 16.2 µM (inactive); with NCI-H226, 23.4 µM (inactive); in the assay with NCI-H460, 18.5 µM (inactive); in the assay on PC-3, 18.4 µM (inactive); in the assay on SF-268, 14.8 µM (inactive). The GI50 is 17.3 µM (inactive) with SF-295; 15.4 µM (inactive) in the assay on SK-MEL-28; 16.7 µM (inactive) with SN12C; 6.24 µM (inactive) with SR; 18.1 µM (inactive) in the assay on U-251; 17.1 µM (inactive) in the assay on UACC-62. In addition, the GI50 in the assay with UO-31 is 3.58 µM (inactive).
